Test results from PubChem BioAssay (NCI).
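Test compounds were applied to cells in 96-well plates for 48 hours at 5 doses. TGI: concentration producing complete growth inhibition.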

Key:
Assay in all cases: NCI-60 cell line screen, 48 h
[1] = system: OVCAR-3 ovarian
[2] = system: UACC-257 melanoma
[3] = system: A549 NSCLC
[4] = system: OVCAR-5 ovarian
[5] = system: K-562 leukemia
[6] = system: LXFL 529 NSCLC
[7] = system: UO-31 renal
[8] = system: SNB-19 CNS
[9] = system: SF-268 CNS
[10] = system: COLO 205 colon
[11] = system: NCI-H23 lung
[12] = system: CAKI-1 renal
[13] = system: TK-10 renal
[14] = system: SK-OV-3 ovarian
[15] = system: IGROV1 ovarian
[16] = system: SN12C renal
[17] = system: OVCAR-8 ovarian
[18] = system: U251 CNS
[19] = system: NCI-H226 lung
[20] = system: KM20L2 colon
[21] = system: MALME-3M melanoma
[22] = system: 786-0 renal
[23] = system: RPMI-8226 leukemia
[24] = system: HT29 colon
[25] = system: DMS 114 small cell lung
[26] = system: SF-295 CNS
[27] = system: EKVX NSCLC
[28] = system: HCC-2998 colon
[29] = system: RXF 393 renal
[30] = system: SR leukemia
[31] = system: MOLT-4 leukemia
[32] = system: HCT-15 colon
[33] = system: DMS 273 small cell lung
[34] = system: UACC-62 melanoma
[35] = system: SNB-78 CNS
[36] = system: KM12 colon
[37] = system: SK-MEL-28 melanoma
[38] = system: NCI-H522 lung
[39] = system: SNB-75 CNS
[40] = system: SW-620 colon
[41] = system: SK-MEL-5 melanoma
[42] = system: OVCAR-4 ovarian
[43] = system: SK-MEL-2 melanoma
[44] = system: M19-MEL melanoma
[45] = system: HOP-92 NSCLC
[46] = system: HCT-116 colon
[47] = system: CCRF-CEM leukemia
[48] = system: HOP-62 NSCLC
[49] = system: A498 renal
[50] = system: ACHN renal
[51] = system: SF-539 CNS
[52] = system: HL-60(TB) leukemia
[53] = system: M14 melanoma
[54] = system: NCI-H460 lung
[55] = system: MDA-N
[56] = system: DU-145 prostate
[57] = system: MDA-MB-231 breast
[58] = system: T-47D breast
[59] = system: PC-3 prostate
[60] = system: MCF7 breast
[61] = system: LOX IMVI melanoma
[62] = system: NCI/ADR-RES ovarian
[63] = system: HS 578T breast
[64] = system: BT-549 breast
[65] = system: MDA-MB-435
[66] = system: DLD-1 colon

**Q.** Which TGI [1] does the source give for `O=C(CCC(=O)N/N=C/c1ccccc1O)N/N=C/c1ccccc1O` here?
**A.** Its TGI is greater than 100 µM.

**Q.** And the TGI [2]?
**A.** Its TGI is greater than 100 µM.

**Q.** What about the TGI [3] of the same compound?
**A.** The TGI was greater than 100 µM.

**Q.** What about the TGI [4] of the same compound?
**A.** The TGI was greater than 100 µM.

**Q.** And the TGI [5]?
**A.** Its TGI is greater than 100 µM.

**Q.** And the TGI [6]?
**A.** The TGI was greater than 100 µM.

**Q.** And the TGI [7]?
**A.** The TGI was greater than 100 µM.

**Q.** What about the TGI [8] of the same compound?
**A.** The TGI was greater than 100 µM.

**Q.** What about the TGI [9] of the same compound?
**A.** Its TGI is 52.4 µM.

**Q.** And the TGI [10]?
**A.** Its TGI is greater than 100 µM.

**Q.** What about the TGI [11] of the same compound?
**A.** The TGI was greater than 100 µM.

**Q.** What about the TGI [12] of the same compound?
**A.** The TGI was greater than 100 µM.

**Q.** What about the TGI [13] of the same compound?
**A.** Its TGI is greater than 100 µM.

**Q.** What about the TGI [14] of the same compound?
**A.** Its TGI is 37.2 µM.

**Q.** And the TGI [15]?
**A.** The TGI was greater than 100 µM.

**Q.** And the TGI [16]?
**A.** The TGI was greater than 100 µM.

**Q.** And the TGI [17]?
**A.** The TGI was greater than 100 µM.

**Q.** And the TGI [18]?
**A.** The TGI was greater than 100 µM.

**Q.** And the TGI [19]?
**A.** Its TGI is greater than 100 µM.

**Q.** What about the TGI [20] of the same compound?
**A.** Its TGI is greater than 100 µM.

**Q.** What about the TGI [21] of the same compound?
**A.** Its TGI is greater than 100 µM.

**Q.** What about the TGI [22] of the same compound?
**A.** The TGI was greater than 100 µM.

**Q.** And the TGI [23]?
**A.** Its TGI is greater than 100 µM.

**Q.** What about the TGI [24] of the same compound?
**A.** Its TGI is greater than 100 µM.

**Q.** And the TGI [25]?
**A.** The TGI was greater than 100 µM.

**Q.** And the TGI [26]?
**A.** The TGI was greater than 100 µM.

**Q.** What about the TGI [27] of the same compound?
**A.** Its TGI is 56.4 µM.

**Q.** What about the TGI [28] of the same compound?
**A.** Its TGI is greater than 100 µM.

**Q.** What about the TGI [29] of the same compound?
**A.** Its TGI is 44.4 µM.

**Q.** And the TGI [30]?
**A.** The TGI was greater than 100 µM.

**Q.** And the TGI [31]?
**A.** Its TGI is greater than 100 µM.

**Q.** What about the TGI [32] of the same compound?
**A.** Its TGI is greater than 100 µM.

**Q.** What about the TGI [33] of the same compound?
**A.** Its TGI is greater than 100 µM.

**Q.** What about the TGI [34] of the same compound?
**A.** The TGI was greater than 100 µM.

**Q.** What about the TGI [35] of the same compound?
**A.** Its TGI is greater than 100 µM.

**Q.** What about the TGI [36] of the same compound?
**A.** The TGI was greater than 100 µM.

**Q.** What about the TGI [37] of the same compound?
**A.** The TGI was greater than 100 µM.

**Q.** What about the TGI [38] of the same compound?
**A.** The TGI was greater than 100 µM.

**Q.** And the TGI [39]?
**A.** The TGI was 31.7 µM.

**Q.** And the TGI [40]?
**A.** The TGI was greater than 100 µM.

**Q.** And the TGI [41]?
**A.** The TGI was greater than 100 µM.

**Q.** And the TGI [42]?
**A.** The TGI was greater than 100 µM.

**Q.** What about the TGI [43] of the same compound?
**A.** Its TGI is 81.3 µM.

**Q.** And the TGI [44]?
**A.** The TGI was greater than 100 µM.

**Q.** And the TGI [45]?
**A.** Its TGI is 56.7 µM.

**Q.** What about the TGI [46] of the same compound?
**A.** Its TGI is greater than 100 µM.

**Q.** Which results are given for `CCCCOP(=O)(OCCCC)/C(C#N)=C/c1ccco1`?
**A.** TGI [1]: > 100 µM; TGI [2]: > 100 µM; TGI [4]: > 100 µM; TGI [6]: > 100 µM; TGI [7]: > 100 µM; TGI [8]: > 100 µM; TGI [9]: > 100 µM; TGI [47]: > 100 µM; TGI [10]: > 100 µM; TGI [11]: > 100 µM; TGI [48]: > 100 µM; TGI [14]: > 100 µM; TGI [15]: > 100 µM; TGI [18]: > 100 µM; TGI [20]: > 100 µM; TGI [21]: > 100 µM; TGI [49]: > 100 µM; TGI [50]: > 100 µM; TGI [23]: > 100 µM; TGI [24]: > 100 µM; TGI [25]: > 100 µM; TGI [26]: > 100 µM; TGI [29]: > 100 µM; TGI [34]: > 100 µM; TGI [35]: > 100 µM; TGI [36]: > 100 µM; TGI [51]: > 100 µM; TGI [37]: > 100 µM; TGI [39]: > 100 µM; TGI [52]: > 100 µM; TGI [42]: > 100 µM; TGI [43]: > 100 µM; TGI [44]: > 100 µM; TGI [53]: > 100 µM; TGI [45]: > 100 µM; TGI [54]: > 100 µM; TGI [46]: > 100 µM

**Q.** What does the source list for `CS(=O)(=O)OCCN(CCOS(C)(=O)=O)c1ccc(C=Nc2ccc3oc(=O)ccc3c2)cc1`?
**A.** TGI [1]: 24.1 µM; TGI [2]: 26.9 µM; TGI [3]: 35.3 µM; TGI [4]: 28.9 µM; TGI [5]: > 100 µM; TGI [6]: 36.4 µM; TGI [7]: 2.96 µM; TGI [8]: 80.7 µM; TGI [9]: 74.3 µM; TGI [55]: 35.8 µM; TGI [47]: 31.8 µM; TGI [10]: 10.3 µM; TGI [11]: 17.5 µM; TGI [48]: 34.1 µM; TGI [12]: 9.11 µM; TGI [13]: 9.22 µM; TGI [14]: 9.92 µM; TGI [15]: 53.1 µM; TGI [16]: > 70.5 µM; TGI [17]: 49.9 µM; TGI [18]: 41.9 µM; TGI [19]: 21.9 µM; TGI [20]: > 100 µM; TGI [56]: 35.9 µM; TGI [57]: 80.8 µM; TGI [58]: 72.8 µM; TGI [21]: 23.8 µM; TGI [49]: 4.67 µM; TGI [59]: 80.7 µM; TGI [60]: > 93.5 µM; TGI [50]: 4.91 µM; TGI [22]: 3.5 µM; TGI [61]: 29.9 µM; TGI [23]: 49.1 µM; TGI [24]: 53.6 µM; TGI [25]: 22.3 µM; TGI [62]: 62.5 µM; TGI [26]: 42.2 µM; TGI [27]: 36.5 µM; TGI [28]: 7.77 µM; TGI [29]: 1.89 µM; TGI [63]: 92.1 µM; TGI [30]: 40.1 µM; TGI [31]: 15.4 µM; TGI [32]: 37.9 µM; TGI [34]: 19.8 µM; TGI [35]: 12.5 µM; TGI [36]: 30.3 µM; TGI [51]: 35.3 µM; TGI [64]: 45.7 µM; TGI [37]: 64.4 µM; TGI [38]: 0.828 µM; TGI [39]: 26.1 µM; TGI [40]: > 83.1 µM; TGI [41]: 32.8 µM; TGI [52]: 41.3 µM; TGI [42]: 41 µM; TGI [43]: 37.7 µM; TGI [44]: 39 µM; TGI [65]: 26.1 µM; TGI [53]: 31.6 µM; TGI [45]: 47.1 µM; TGI [54]: 5.38 µM; TGI [46]: > 100 µM

**Q.** Which results are given for `Cc1cccc2c1Oc1cc(Cl)ccc1C2NC(=O)CN(C)C` (stereo not drawn)?
**A.** TGI [2]: 89.5 µM; TGI [3]: > 100 µM; TGI [4]: > 100 µM; TGI [5]: > 100 µM; TGI [66]: > 100 µM; TGI [6]: > 100 µM; TGI [7]: > 100 µM; TGI [8]: > 100 µM; TGI [9]: > 100 µM; TGI [47]: > 100 µM; TGI [10]: > 100 µM; TGI [11]: > 100 µM; TGI [48]: > 100 µM; TGI [13]: > 100 µM; TGI [14]: > 100 µM; TGI [15]: > 100 µM; TGI [16]: > 100 µM; TGI [17]: > 100 µM; TGI [19]: > 100 µM; TGI [20]: 41.2 µM; TGI [50]: > 100 µM; TGI [22]: 41.4 µM; TGI [61]: > 100 µM; TGI [23]: > 100 µM; TGI [24]: > 100 µM; TGI [25]: > 100 µM; TGI [27]: > 100 µM; TGI [28]: > 100 µM; TGI [29]: 87.8 µM; TGI [30]: > 100 µM; TGI [31]: > 100 µM; TGI [32]: > 100 µM; TGI [33]: > 100 µM; TGI [34]: 70 µM; TGI [35]: > 100 µM; TGI [51]: > 100 µM; TGI [37]: 72.7 µM; TGI [39]: 68.8 µM; TGI [40]: > 100 µM; TGI [41]: 49.3 µM; TGI [52]: 45.3 µM; TGI [42]: > 100 µM; TGI [44]: 47.6 µM; TGI [53]: 51.8 µM; TGI [54]: > 100 µM; TGI [46]: > 100 µM
